Experimental data as given in publication PMC4490784, “Compensatory induction of MYC expression by sustained CDK9 inhibition via a BRD4-dependent mechanism” (eLife, 2015).

How the values were obtained:
Assay in all cases: KINOMEscan binding assay
[1] = molecular target: T1, ABL1(Q252H)-nonphosphorylated (Homo sapiens, UniProt P00519, Q252H); conditions: read-out: % Retention on Solid Support
T1 construct: purchased DiscoveRx KINOMEscan
Procedure, shortened: (§1)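 We profiled i-CDK9 by active-site-directed competitive binding, testing 1 µM and 10 µM against over 400 kinases.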

ABL1-phosphorylated = molecular target: T2, ABL1-phosphorylated (Homo sapiens, UniProt P00519); conditions: 1 µM i-CDK9; read-out: % Retention on Solid Support
T2 construct: purchased DiscoveRx KINOMEscan
Procedure, shortened: as §1

BMPR1A = molecular target: T3, BMPR1A (Homo sapiens, UniProt P36894); conditions: read-out: % Retention on Solid Support
T3 construct: purchased DiscoveRx KINOMEscan
Procedure, shortened: as §1

CAMK1 = molecular target: T4, CAMK1 (Homo sapiens, UniProt Q14012); conditions: read-out: % Retention on Solid Support
T4 construct: purchased DiscoveRx KINOMEscan
Procedure, shortened: as §1

CAMK1D = molecular target: T5, CAMK1D (Homo sapiens, UniProt Q8IU85); conditions: read-out: % Retention on Solid Support
T5 construct: purchased DiscoveRx KINOMEscan
Procedure, shortened: as §1

CDKL3 = molecular target: T6, CDKL3 (Homo sapiens, UniProt Q8IVW4); conditions: read-out: % Retention on Solid Support
T6 construct: purchased DiscoveRx KINOMEscan
Procedure, shortened: as §1

CDKL5 = molecular target: T7, CDKL5 (Homo sapiens, UniProt O76039); conditions: read-out: % Retention on Solid Support
T7 construct: purchased DiscoveRx KINOMEscan
Procedure, shortened: as §1

CSNK1G2 = molecular target: T8, CSNK1G2 (Homo sapiens, UniProt P78368)
T8 construct: purchased DiscoveRx KINOMEscan
Procedure, shortened: as §1

CSNK2A1 = molecular target: T9, CSNK2A1 (Homo sapiens, UniProt P68400); conditions: read-out: % Retention on Solid Support
T9 construct: purchased DiscoveRx KINOMEscan
Procedure, shortened: as §1

DYRK2 = molecular target: T10, DYRK2 (Homo sapiens, UniProt Q92630); conditions: read-out: % Retention on Solid Support
T10 construct: purchased DiscoveRx KINOMEscan
T10 sequence (Q92630 1-601): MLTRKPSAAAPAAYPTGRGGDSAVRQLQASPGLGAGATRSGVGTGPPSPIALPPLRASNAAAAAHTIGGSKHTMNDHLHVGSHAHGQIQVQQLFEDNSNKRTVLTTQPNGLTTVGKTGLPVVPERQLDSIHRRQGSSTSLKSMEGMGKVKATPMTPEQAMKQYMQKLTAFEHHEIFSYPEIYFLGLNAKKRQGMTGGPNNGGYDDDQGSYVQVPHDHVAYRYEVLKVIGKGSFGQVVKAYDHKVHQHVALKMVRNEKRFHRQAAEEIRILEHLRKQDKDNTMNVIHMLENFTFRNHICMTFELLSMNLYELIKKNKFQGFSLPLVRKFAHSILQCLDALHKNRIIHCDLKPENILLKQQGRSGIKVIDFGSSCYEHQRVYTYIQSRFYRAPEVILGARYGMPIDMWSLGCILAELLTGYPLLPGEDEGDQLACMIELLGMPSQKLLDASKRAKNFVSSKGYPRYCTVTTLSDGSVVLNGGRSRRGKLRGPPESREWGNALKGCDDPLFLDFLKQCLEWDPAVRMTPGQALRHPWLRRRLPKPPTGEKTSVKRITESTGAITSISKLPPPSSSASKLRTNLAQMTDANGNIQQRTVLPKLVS
Procedure, shortened: as §1

ERN1 = molecular target: T11, ERN1 (Homo sapiens, UniProt O75460); conditions: read-out: % Retention on Solid Support
T11 construct: purchased DiscoveRx KINOMEscan
Procedure, shortened: as §1

FLT3(D835Y) = molecular target: T12, FLT3(D835Y) (Homo sapiens, UniProt P36888, D835Y); conditions: read-out: % Retention on Solid Support
T12 construct: purchased DiscoveRx KINOMEscan
Procedure, shortened: as §1

LATS2 = molecular target: T13, LATS2 (Homo sapiens, UniProt Q9NRM7)
T13 construct: purchased DiscoveRx KINOMEscan
Procedure, shortened: as §1

MKNK2 = molecular target: T14, MKNK2 (Homo sapiens, UniProt Q9HBH9); conditions: read-out: % Retention on Solid Support
T14 construct: purchased DiscoveRx KINOMEscan
Procedure, shortened: as §1

MLK3 = molecular target: T15, MLK3 (Homo sapiens, UniProt Q16584)
T15 construct: purchased DiscoveRx KINOMEscan
Procedure, shortened: as §1

MRCKB = molecular target: T16, MRCKB (Homo sapiens, UniProt Q9Y5S2); conditions: read-out: % Retention on Solid Support
T16 construct: purchased DiscoveRx KINOMEscan
Procedure, shortened: as §1

PDGFRA = molecular target: T17, PDGFRA (Homo sapiens, UniProt P16234); conditions: read-out: % Retention on Solid Support
T17 construct: purchased DiscoveRx KINOMEscan
Procedure, shortened: as §1

PFTK1 = molecular target: T18, PFTK1 (Homo sapiens, UniProt O94921)
T18 construct: purchased DiscoveRx KINOMEscan
Procedure, shortened: as §1

PIK3CG = molecular target: T19, PIK3CG (Homo sapiens, UniProt P48736); conditions: read-out: % Retention on Solid Support
T19 construct: purchased DiscoveRx KINOMEscan
Procedure, shortened: as §1

PLK2 = molecular target: T20, PLK2 (Homo sapiens, UniProt Q9NYY3)
T20 construct: purchased DiscoveRx KINOMEscan
Procedure, shortened: as §1

PYK2 = molecular target: T21, PYK2 (Homo sapiens, UniProt Q14289); conditions: read-out: % Retention on Solid Support
T21 construct: purchased DiscoveRx KINOMEscan
Procedure, shortened: as §1

[2] = molecular target: RPS6KA5(Kin.Dom.2-C-terminal) (Homo sapiens, UniProt O75582); conditions: read-out: % Retention on Solid Support
Procedure, shortened: as §1

TRPM6 = molecular target: T22, TRPM6 (Homo sapiens, UniProt Q9BX84); conditions: 1 µM i-CDK9; read-out: % Retention on Solid Support
T22 construct: purchased DiscoveRx KINOMEscan
Procedure, shortened: as §1

T20 sequence (Q9NYY3 whole entry): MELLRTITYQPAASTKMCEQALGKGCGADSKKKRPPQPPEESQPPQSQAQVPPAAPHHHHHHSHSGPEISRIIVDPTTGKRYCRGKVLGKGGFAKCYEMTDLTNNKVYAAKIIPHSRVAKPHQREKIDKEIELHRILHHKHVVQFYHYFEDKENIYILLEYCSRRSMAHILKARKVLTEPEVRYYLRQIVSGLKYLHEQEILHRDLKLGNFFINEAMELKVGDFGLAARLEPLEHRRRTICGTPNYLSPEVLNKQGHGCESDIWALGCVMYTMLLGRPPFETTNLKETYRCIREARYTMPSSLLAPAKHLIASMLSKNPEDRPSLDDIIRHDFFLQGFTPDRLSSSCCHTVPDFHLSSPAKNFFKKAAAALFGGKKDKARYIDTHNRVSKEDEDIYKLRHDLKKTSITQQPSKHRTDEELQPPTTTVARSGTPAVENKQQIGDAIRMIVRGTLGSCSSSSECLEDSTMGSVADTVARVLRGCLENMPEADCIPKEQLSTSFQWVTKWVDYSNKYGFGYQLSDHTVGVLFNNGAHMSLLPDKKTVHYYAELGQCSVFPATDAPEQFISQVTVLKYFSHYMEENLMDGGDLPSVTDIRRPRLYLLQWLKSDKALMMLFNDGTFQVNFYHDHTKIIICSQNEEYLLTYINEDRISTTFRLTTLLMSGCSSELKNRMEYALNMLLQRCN
T17 sequence (P16234 24-1089): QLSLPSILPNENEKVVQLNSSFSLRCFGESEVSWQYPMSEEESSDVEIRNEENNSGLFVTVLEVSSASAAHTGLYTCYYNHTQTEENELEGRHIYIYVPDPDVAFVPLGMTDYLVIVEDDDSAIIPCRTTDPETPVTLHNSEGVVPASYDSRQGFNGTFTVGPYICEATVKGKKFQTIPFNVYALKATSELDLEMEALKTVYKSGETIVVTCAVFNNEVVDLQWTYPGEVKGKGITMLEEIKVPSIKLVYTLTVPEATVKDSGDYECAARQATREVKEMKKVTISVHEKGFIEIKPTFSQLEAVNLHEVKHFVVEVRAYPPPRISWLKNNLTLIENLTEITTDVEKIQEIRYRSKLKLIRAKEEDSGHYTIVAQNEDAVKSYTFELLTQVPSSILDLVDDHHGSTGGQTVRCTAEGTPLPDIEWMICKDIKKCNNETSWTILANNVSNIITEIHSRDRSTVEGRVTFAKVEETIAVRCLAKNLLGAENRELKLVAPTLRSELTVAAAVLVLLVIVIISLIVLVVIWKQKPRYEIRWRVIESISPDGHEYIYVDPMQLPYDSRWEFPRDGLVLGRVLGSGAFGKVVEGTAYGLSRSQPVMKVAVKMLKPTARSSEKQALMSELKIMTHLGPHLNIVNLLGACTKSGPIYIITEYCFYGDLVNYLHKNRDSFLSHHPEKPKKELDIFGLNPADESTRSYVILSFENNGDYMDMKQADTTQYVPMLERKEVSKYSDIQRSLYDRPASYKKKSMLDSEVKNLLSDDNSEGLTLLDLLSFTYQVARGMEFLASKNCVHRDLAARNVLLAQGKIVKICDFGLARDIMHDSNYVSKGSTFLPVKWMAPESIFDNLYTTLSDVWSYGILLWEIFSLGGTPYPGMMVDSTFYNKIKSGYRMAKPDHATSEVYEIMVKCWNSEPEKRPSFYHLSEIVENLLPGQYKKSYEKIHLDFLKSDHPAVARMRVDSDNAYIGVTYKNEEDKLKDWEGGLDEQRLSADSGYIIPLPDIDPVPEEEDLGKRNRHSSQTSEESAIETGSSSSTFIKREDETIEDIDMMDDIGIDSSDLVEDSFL
T4 sequence (Q14012 whole entry): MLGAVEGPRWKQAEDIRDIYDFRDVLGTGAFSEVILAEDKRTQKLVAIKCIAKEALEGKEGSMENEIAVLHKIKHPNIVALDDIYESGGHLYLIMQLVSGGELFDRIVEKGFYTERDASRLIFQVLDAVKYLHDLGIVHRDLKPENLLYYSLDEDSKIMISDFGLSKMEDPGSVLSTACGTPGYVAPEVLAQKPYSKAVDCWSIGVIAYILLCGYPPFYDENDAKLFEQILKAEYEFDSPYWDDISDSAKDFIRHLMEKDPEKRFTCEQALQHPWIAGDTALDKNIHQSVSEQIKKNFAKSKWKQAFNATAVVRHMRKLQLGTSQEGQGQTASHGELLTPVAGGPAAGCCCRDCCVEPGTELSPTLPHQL
T15 sequence (Q16584 whole entry): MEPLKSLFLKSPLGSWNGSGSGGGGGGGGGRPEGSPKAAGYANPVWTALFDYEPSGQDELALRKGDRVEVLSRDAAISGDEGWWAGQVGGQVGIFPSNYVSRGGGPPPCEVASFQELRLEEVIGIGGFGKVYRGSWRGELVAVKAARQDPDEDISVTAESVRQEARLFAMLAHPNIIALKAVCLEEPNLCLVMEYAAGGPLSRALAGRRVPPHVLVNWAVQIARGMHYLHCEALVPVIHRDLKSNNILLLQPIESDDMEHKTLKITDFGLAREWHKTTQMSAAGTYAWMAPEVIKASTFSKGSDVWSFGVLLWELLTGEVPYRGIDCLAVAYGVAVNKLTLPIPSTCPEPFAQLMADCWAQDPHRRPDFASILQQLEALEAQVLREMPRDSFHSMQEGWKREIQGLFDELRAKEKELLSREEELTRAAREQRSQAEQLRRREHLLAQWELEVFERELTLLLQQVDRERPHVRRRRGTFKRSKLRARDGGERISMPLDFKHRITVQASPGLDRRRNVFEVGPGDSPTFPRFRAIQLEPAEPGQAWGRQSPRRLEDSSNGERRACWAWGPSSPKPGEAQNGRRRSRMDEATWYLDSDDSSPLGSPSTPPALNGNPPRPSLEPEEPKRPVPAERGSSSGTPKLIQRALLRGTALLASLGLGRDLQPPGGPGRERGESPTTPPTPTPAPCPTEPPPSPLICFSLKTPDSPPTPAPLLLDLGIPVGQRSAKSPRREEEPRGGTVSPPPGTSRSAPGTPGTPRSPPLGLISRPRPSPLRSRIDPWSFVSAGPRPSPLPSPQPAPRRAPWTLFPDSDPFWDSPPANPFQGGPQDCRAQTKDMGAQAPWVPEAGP
T7 sequence (O76039 whole entry): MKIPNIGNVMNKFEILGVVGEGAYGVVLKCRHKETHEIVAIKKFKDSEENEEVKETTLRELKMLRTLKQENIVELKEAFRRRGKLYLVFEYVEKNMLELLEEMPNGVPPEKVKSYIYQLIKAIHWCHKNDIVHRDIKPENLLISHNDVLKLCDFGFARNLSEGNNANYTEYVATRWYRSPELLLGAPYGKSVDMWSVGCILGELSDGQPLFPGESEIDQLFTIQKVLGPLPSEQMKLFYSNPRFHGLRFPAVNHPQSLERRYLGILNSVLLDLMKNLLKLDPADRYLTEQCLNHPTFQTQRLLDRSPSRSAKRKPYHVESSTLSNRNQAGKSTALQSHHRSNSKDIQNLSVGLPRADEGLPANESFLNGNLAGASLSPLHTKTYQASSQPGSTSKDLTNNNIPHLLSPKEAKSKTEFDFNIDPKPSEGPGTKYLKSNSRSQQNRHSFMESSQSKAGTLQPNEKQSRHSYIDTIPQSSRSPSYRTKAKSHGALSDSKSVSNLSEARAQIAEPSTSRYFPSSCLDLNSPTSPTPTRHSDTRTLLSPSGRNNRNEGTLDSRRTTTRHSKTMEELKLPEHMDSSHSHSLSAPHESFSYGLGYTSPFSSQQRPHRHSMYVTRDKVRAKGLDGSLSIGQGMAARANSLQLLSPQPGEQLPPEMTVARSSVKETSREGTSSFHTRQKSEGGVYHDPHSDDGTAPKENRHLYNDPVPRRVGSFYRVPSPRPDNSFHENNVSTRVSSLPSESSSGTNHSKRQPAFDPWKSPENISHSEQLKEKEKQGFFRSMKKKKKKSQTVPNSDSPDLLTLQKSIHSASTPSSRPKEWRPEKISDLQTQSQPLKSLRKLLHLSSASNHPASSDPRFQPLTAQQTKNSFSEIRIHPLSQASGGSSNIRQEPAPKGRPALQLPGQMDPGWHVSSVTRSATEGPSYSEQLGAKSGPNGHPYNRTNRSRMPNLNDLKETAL
T18 sequence (O94921 whole entry): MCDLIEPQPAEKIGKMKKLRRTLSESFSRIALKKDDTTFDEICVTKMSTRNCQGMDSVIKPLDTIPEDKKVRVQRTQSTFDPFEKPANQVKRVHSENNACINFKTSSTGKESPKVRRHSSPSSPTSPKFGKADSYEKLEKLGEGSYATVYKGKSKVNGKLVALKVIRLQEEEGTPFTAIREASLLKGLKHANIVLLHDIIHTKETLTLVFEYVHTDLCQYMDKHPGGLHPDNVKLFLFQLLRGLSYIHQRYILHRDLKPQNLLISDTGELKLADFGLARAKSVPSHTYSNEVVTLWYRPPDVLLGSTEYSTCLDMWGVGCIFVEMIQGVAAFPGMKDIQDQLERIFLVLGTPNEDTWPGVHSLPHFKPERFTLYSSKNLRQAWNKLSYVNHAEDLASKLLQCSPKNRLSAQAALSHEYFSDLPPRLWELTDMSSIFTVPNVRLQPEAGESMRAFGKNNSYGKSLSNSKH
T3 sequence (P36894 24-532): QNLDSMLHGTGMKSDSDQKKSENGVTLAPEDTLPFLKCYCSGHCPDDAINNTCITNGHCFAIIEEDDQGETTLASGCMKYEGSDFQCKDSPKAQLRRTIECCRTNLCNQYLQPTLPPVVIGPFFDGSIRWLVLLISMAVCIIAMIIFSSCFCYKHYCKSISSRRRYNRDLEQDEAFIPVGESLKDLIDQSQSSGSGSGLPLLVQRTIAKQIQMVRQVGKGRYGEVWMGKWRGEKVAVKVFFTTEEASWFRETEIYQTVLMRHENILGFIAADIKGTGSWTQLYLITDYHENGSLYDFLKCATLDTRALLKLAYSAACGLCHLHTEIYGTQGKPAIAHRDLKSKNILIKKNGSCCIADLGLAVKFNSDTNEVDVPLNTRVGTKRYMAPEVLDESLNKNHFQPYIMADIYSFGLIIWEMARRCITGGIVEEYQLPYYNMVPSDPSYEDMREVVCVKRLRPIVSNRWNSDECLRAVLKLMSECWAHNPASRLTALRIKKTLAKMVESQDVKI

`N[C@H]1CC[C@H](Nc2cc(-c3cccc(NCc4cccc(F)c4)n3)c(Cl)cn2)CC1` [i-CDK9, N2′-(trans-4-aminocyclohexyl)-5′-chloro-N6-(3-fluorobenzyl)-2,4′-bipyridine-2′,6-diamine] showed a remaining binding at 1 µM ([1]; 1 µM i-CDK9) of 55%, a remaining binding at 10 µM ([1]; 10 µM i-CDK9) of 91% and a remaining binding at 1 µM (ABL1-phosphorylated) of 67%. The remaining binding at 1 µM (BMPR1A; 1 µM i-CDK9) was 63%, the remaining binding at 10 µM (BMPR1A; 10 µM i-CDK9) was 100% and the remaining binding at 1 µM (CAMK1; 1 µM i-CDK9) was 96%. It also gave a remaining binding at 10 µM (CAMK1; 10 µM i-CDK9) of 100%, a remaining binding at 1 µM (CAMK1D; 1 µM i-CDK9) of 100% and a remaining binding at 10 µM (CAMK1D; 10 µM i-CDK9) of 100%. For the same compound, the remaining binding at 1 µM (CDKL3; 1 µM i-CDK9) was 44%, the remaining binding at 10 µM (CDKL3; 10 µM i-CDK9) was 23% and the remaining binding at 1 µM (CDKL5; 1 µM i-CDK9) was 52%. The remaining binding at 10 µM (CDKL5; 10 µM i-CDK9) was 3.8%, the “% Retention on Solid Support” value (CSNK1G2; 1 µM i-CDK9) was 100% and the “% Retention on Solid Support” value (CSNK1G2; 10 µM i-CDK9) was 66%. For the same compound, the remaining binding at 1 µM (CSNK2A1; 1 µM i-CDK9) was 100%, the remaining binding at 10 µM (CSNK2A1; 10 µM i-CDK9) was 100% and the remaining binding at 1 µM (DYRK2; 1 µM i-CDK9) was 7.1%. For the same compound, the remaining binding at 10 µM (DYRK2; 10 µM i-CDK9) was 33%, the remaining binding at 1 µM (ERN1; 1 µM i-CDK9) was 100% and the remaining binding at 10 µM (ERN1; 10 µM i-CDK9) was 62%. For the same compound, the remaining binding at 1 µM (FLT3(D835Y); 1 µM i-CDK9) was 100%, the remaining binding at 10 µM (FLT3(D835Y); 10 µM i-CDK9) was 68% and the “% Retention on Solid Support” value (LATS2; 1 µM i-CDK9) was 100%. The “% Retention on Solid Support” value (LATS2; 10 µM i-CDK9) was 100%, the remaining binding at 1 µM (MKNK2; 1 µM i-CDK9) was 100% and the remaining binding at 10 µM (MKNK2; 10 µM i-CDK9) was 99%. The “% Retention on Solid Support” value (MLK3; 1 µM i-CDK9) was 85%, the “% Retention on Solid Support” value (MLK3; 10 µM i-CDK9) was 100% and the remaining binding at 1 µM (MRCKB; 1 µM i-CDK9) was 95%. It also gave a remaining binding at 10 µM (MRCKB; 10 µM i-CDK9) of 100%, a remaining binding at 1 µM (PDGFRA; 1 µM i-CDK9) of 59% and a remaining binding at 10 µM (PDGFRA; 10 µM i-CDK9) of 88%. The “% Retention on Solid Support” value (PFTK1; 1 µM i-CDK9) was 76%, the “% Retention on Solid Support” value (PFTK1; 10 µM i-CDK9) was 5.4% and the remaining binding at 1 µM (PIK3CG; 1 µM i-CDK9) was 100%. The remaining binding at 10 µM (PIK3CG; 10 µM i-CDK9) was 100%, the “% Retention on Solid Support” value (PLK2; 1 µM i-CDK9) was 100% and the “% Retention on Solid Support” value (PLK2; 10 µM i-CDK9) was 100%. For the same compound, the remaining binding at 1 µM (PYK2; 1 µM i-CDK9) was 100%, the remaining binding at 10 µM (PYK2; 10 µM i-CDK9) was 100% and the remaining binding at 1 µM ([2]; 1 µM i-CDK9) was 100%. For the same compound, the remaining binding at 10 µM ([2]; 10 µM i-CDK9) was 100% and the remaining binding at 1 µM (TRPM6) was 92%.
